# Source: article PMC9121578, “Celastrol mitigates inflammation in sepsis by inhibiting the PKM2-dependent Warburg effect” (Military Medical Research, 2022)
# Assays:
# Assay type in all cases: binding
# [1] = target: T1, PKM2 (pyruvate kinase M2) (Homo sapiens, UniProt P14618); assay: probe labelling, click chemistry, in-gel fluorescence; settings: room temperature; PBS; covalent
# T1 construct: gene PKM; recombinant, pET28a, E. coli BL21, Ni-NTA purified; full length implied
# [2] = target: T2, HMGB1 (high mobility group box 1) (Homo sapiens, UniProt P09429); assay: as above; settings: room temperature; PBS; covalent
# T2 construct: recombinant full length, pET-24d, E. coli BL21, Ni-NTA purified; a recombinant human HMGB1 was also bought from Abcam
# T2 sequence (P09429 1-215): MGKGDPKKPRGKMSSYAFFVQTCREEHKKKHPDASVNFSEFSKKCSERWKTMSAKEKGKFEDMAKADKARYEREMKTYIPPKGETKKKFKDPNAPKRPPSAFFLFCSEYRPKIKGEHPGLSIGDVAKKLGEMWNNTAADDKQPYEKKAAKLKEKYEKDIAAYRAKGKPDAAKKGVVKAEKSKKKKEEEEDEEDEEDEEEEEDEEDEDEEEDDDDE
# [3] = target: T2, HMGB1 (high mobility group box 1); assay: surface plasmon resonance, CM5 chip, steady-state […]
# HMGB1 B box = target: T3, HMGB1 B box (Homo sapiens, UniProt P09429); assay: UV-visible absorption; competition with Cel-P labelling; settings: 100 μmol/L Cel; covalent
# T3 construct: B box domain (contains Cys106)
# T3 sequence (P09429 95-163 limits assumed): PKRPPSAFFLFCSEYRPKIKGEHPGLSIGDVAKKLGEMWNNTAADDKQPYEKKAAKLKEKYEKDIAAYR
# [4] = target: T4, LDHA (lactate dehydrogenase A) (Homo sapiens, UniProt P00338); assay: surface plasmon resonance, CM5 chip, steady-state […]
# T4 construct: recombinant human LDHA obtained from Abcam
# [5] = target: T1, PKM2 (pyruvate kinase M2); assay: as above
# T1 sequence (P14618 2-531): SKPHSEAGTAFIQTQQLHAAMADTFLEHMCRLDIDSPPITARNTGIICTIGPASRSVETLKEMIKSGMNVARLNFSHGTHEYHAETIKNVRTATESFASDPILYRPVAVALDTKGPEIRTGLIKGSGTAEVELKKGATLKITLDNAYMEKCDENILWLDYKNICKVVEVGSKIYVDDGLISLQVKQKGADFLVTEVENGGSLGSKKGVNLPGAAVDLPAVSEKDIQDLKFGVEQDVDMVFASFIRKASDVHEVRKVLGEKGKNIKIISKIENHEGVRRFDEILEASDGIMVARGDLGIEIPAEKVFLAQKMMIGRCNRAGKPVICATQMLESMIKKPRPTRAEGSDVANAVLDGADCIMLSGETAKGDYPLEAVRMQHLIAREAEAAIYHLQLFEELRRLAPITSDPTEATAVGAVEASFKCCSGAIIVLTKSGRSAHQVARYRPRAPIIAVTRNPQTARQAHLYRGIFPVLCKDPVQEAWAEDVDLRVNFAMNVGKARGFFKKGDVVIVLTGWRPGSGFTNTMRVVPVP
Structure (SMILES),"probe labelling, click chemistry, in-gel fluorescence [1]","probe labelling, click chemistry, in-gel fluorescence [2]",Kd [3] [µM],UV-visible absorption; competition with Cel-P labelling (HMGB1 B box),Kd [4] [µM],Kd [5] [µM]
"C#CCNC(=O)[C@]1(C)CC[C@]2(C)CC[C@]3(C)C4=CC=C5C(=CC(=O)C(O)=C5C)[C@]4(C)CC[C@@]3(C)[C@@H]2C1 [Cel-P, celastrol-probe]",These proteins were labeled with Cel-P in a dose-dependent manner,Cel-P labeled recombinant human HMGB1 (Fig. 6c),–,–,–,–
"CC1=C(O)C(=O)C=C2C1=CC=C1[C@@]2(C)CC[C@@]2(C)[C@@H]3C[C@](C)(C(=O)O)CC[C@]3(C)CC[C@]12C [Cel, Celastrol]",–,–,4.44,UV–visible absorption by Cel decreased upon mixing with the B box domain,562,635
